Read-outs that look alike come from different tables or passages of the source.
Columns and labels:
[1] = format: in vivo, Male Wistar-Hannover rats
SARS-CoV-2 virus = test: In vitro anti-SARS-CoV-2 virus assay (Vero E6 cells, viral RNA by PCR); format: cell-based
[2] = Vero E6 cells, compound final concentration 100 nM, PCR of supernatant viral RNA after 2-3 days

Compound: [2H]C([2H])([2H])C(C(NC(=O)C(F)(F)F)C(=O)N1C[C@H]2[C@@H]([C@H]1C(=O)N[C@H](C#N)C[C@@H]1CCNC1=O)C2(C)C)(C([2H])([2H])[2H])C([2H])([2H])[2H] (stereo partly shown) [Compound 32]
- AUC0~∞ ([1]; rats, dose 10 mg/kg, plasma): 2011 ng·h/mL
- Cmax ([1]; rats, dose 10 mg/kg, plasma): 1429 ng/mL
- T1/2 ([1]; rats, dose 10 mg/kg, plasma): 3.5 h
- Tmax ([1]; rats, dose 10 mg/kg, plasma): 2 h
- Inhibition rate (virus replication) (SARS-CoV-2 virus; [2]): 70.4%

Compound: [2H][C@@](C#N)(C[C@@H]1CCNC1=O)NC(=O)[C@@H]1[C@@H]2[C@H](CN1C(=O)[C@@H](NC(=O)C(F)(F)F)C(C)(C)C)C2(C)C [Compound 2]
- AUC0~∞ ([1]; rats, dose 10 mg/kg, plasma): 2325 ng·h/mL
- Cmax ([1]; rats, dose 10 mg/kg, plasma): 1480 ng/mL
- T1/2 ([1]; rats, dose 10 mg/kg, plasma): 4.2 h
- Tmax ([1]; rats, dose 10 mg/kg, plasma): 2 h
- Inhibition rate (virus replication) (SARS-CoV-2 virus; [2]): 73.5%

Compound: [2H][C@](NC(=O)C(F)(F)F)(C(=O)N1C[C@H]2[C@@H]([C@H]1C(=O)N[C@H](C#N)C[C@@H]1CCNC1=O)C2(C)C)C(C)(C)C [Compound 16]
- Cmax ([1]; rat, in vivo, 10 mg/kg): 1452 ng/mL
- AUC0~∞ ([1]; rats, dose 10 mg/kg, plasma): 2294 ng·h/mL
- T1/2 ([1]; rats, dose 10 mg/kg, plasma): 4 h
- Tmax ([1]; rats, dose 10 mg/kg, plasma): 2 h
- Inhibition rate (virus replication) (SARS-CoV-2 virus; [2]): 72.6%

Compound: PF-07321332 [reference compound]
- Inhibition rate (virus replication) (SARS-CoV-2 virus; 0.1 µM): 72.9%

Compound: O=C(OC[C@H]1O[C@@H](OC(=O)c2cc(O)c(O)c(OC(=O)c3cc(O)c(O)c(O)c3)c2)[C@H](OC(=O)c2cc(O)c(O)c(OC(=O)c3cc(O)c(O)c(O)c3)c2)[C@@H](OC(=O)c2cc(O)c(O)c(OC(=O)c3cc(O)c(O)c(O)c3)c2)[C@@H]1OC(=O)c1cc(O)c(O)c(OC(=O)c2cc(O)c(O)c(O)c2)c1)c1cc(O)c(O)c(OC(=O)c2cc(O)c(O)c(O)c2)c1 [Control, tannic acid, reference compound]
- inhibition at 0.1 µM (SARS-CoV-2 virus; Severe acute respiratory syndrome coronavirus 2, Vero C1008, read-out: Inhibition rate (virus replication)): 54.1%

Compound: [2H]C1([2H])C[C@@H](C[C@@H](C#N)NC(=O)[C@@H]2[C@@H]3[C@H](CN2C(=O)[C@@H](NC(=O)C(F)(F)F)C(C)(C)C)C3(C)C)C(=O)N1 [Compound 1]
- AUC0~∞ ([1]; rats, dose 10 mg/kg, plasma): 1974 ng·h/mL
- Cmax ([1]; rats, dose 10 mg/kg, plasma): 1393 ng/mL
- T1/2 ([1]; rats, dose 10 mg/kg, plasma): 3.5 h
- Tmax ([1]; rats, dose 10 mg/kg, plasma): 2 h
- Inhibition rate (virus replication) (SARS-CoV-2 virus; [2]): 71.5%

— patent publication US20250002529A1, “NOVEL […] COMPOUNDS, PREPARATION METHODS, COMPOSITIONS AND APPLICATIONS” (Guangzhou Anobri Pharmaceutical Co. Ltd., priority 2021, published 2025)
